From paper PMC9604400, “Synthesis, Anticancer and Antitubercular Properties of New Chalcones and Their Nitrogen-Containing Five-Membered Heterocyclic Hybrids Bearing Sulfonamide Moiety” (International Journal of Molecular Sciences, 2022)
Marks after values point to notes of the source that are not given here.

Assays:
M. tuberculosis H37Rv = assay: Checkerboard synergism assay; format: cell-based, Mycobacterium tuberculosis; conditions: for MIC: Mycobacterium tuberculosis, H37RV, checkerboard, alone
Method: The synergism assays were carried out in 96-well plates with Middlebrook 7H9 medium supplemented with OADC.

[1] = tested on: 60 human cancer cell lines; assay: NCI-60 screen (SRB), whole panel; format: cell-based; conditions: single dose 10 μM; for inhibition at 10 µM: Homo sapiens, mean over 60 cell lines, over 100% = cell death, read-out: Mean growth inhibition (GI) percentage
[2] = antibiotic in combination with 20a
[3] = antibiotic in combination with 20f

melting point [°C]	Structure (SMILES)	inhibition at 10 µM [1] [%]	other results
250 to 252	COc1ccc(C(=O)/C=C/c2ccc(C)cc2)cc1S(=O)(=O)NNC(=O)c1ccncc1	–	–
241 to 243	COc1ccc(C2=NN(C=O)C(c3ccc(Cl)cc3)C2)cc1S(=O)(=O)Nc1cccnc1 (stereo not shown)	–	–
269 to 271	COc1cc(OC)c(S(N)(=O)=O)cc1C1=NN(C=O)C(c2ccc(Cl)cc2)C1 (stereo not shown)	–	–
229 to 232	COc1ccc(C2=NN(C(C)=O)C(c3ccc(Cl)cc3)C2)cc1S(N)(=O)=O (stereo not shown)	–	–
156 to 158	COc1ccc(C2=NN(C=O)C(c3ccc(Cl)cc3)C2)cc1S(=O)(=O)NNC(=O)c1ccncc1 (stereo not shown)	–	–
166 to 168	COc1cc(OC)c(S(=O)(=O)NNC(=O)c2ccncc2)cc1C1=NN(C=O)C(c2ccc(Cl)cc2)C1 (stereo not shown)	–	–
146 to 148	COc1ccc(C2=NN(C(C)=O)C(c3ccc(Cl)cc3)C2)cc1S(=O)(=O)NNC(=O)c1ccncc1 (stereo not shown)	–	–
236 to 238	COc1ccc(C2=NN(C(N)=S)C(c3ccc(Cl)cc3)C2)cc1S(=O)(=O)Nc1cccnc1 (stereo not shown)	–	–
180 to 182	COc1cc(OC)c(S(=O)(=O)NNC(=O)c2ccncc2)cc1C1=NN(C(N)=S)C(c2ccc(Cl)cc2)C1 (stereo not shown)	–	–
–	NCC[C@H](O)C(=O)N[C@@H]1C[C@H](N)[C@@H](O[C@H]2O[C@H](CN)[C@@H](O)[C@H](O)[C@H]2O)[C@H](O)[C@H]1O[C@H]1O[C@H](CO)[C@@H](O)[C@H](N)[C@H]1O [AMK, amikacin, reference compound]	–	MIC (M. tuberculosis H37Rv): 1.5 µg/mL; FICI Index (M. tuberculosis H37Rv; [2]): 2.00; MIC Combination (M. tuberculosis H37Rv; [2]): 1.5 µg/mL; FICI Index (M. tuberculosis H37Rv; [3]): 2.00; MIC Combination (M. tuberculosis H37Rv; [3]): 1.5 µg/mL
–	COc1cc(OC)c(S(N)(=O)=O)cc1C(C)=O [Compound 8b, 5-Acetyl-2,4-dimethoxybenzenesulfonamide]	–	antiproliferative activity (in words) [1]: low antiproliferative activity
–	COc1ccc(C(C)=O)cc1S(=O)(=O)Nc1cccnc1 [Compound 10, 5-Acetyl-2-methoxy-N-(pyridin-3-yl)benzenesulfonamide]	3.21	antiproliferative activity (in words) [1]: low antiproliferative activity
–	COc1cc(OC)c(S(=O)(=O)N(CCCl)CCCl)cc1C(C)=O [Compound 12, 5-Acetyl-N,N-bis(2-chloroethyl)-2,4-dimethoxybenzenesulfonamide]	–	antiproliferative activity (in words) [1]: low antiproliferative activity
–	COc1ccc(C(C)=O)cc1S(=O)(=O)NNC(=O)c1ccncc1 [Compound 14a, 5-Acetyl-N’-isonicotinoyl-2-methoxybenzenesulfonohydrazide]	2.09	antiproliferative activity (in words) [1]: low antiproliferative activity
–	COc1cc(OC)c(S(=O)(=O)NNC(=O)c2ccncc2)cc1C(C)=O [Compound 14b, 5-Acetyl-N’-isonicotinoyl-2,4-dimethoxybenzenesulfonohydrazide]	–	antiproliferative activity (in words) [1]: low antiproliferative activity
184 to 186	COc1cc(OC)c(S(=O)(=O)N(CCCl)CCCl)cc1C(=O)C=Cc1ccccc1 [Compound 18a, N,N-bis(2-chloroethyl)-5-cinnamoyl-2,4-dimethoxybenzenesulfonamide]	–	–
186 to 187	COc1cc(OC)c(S(=O)(=O)N(CCCl)CCCl)cc1C(=O)/C=C/c1ccc(Cl)cc1 [Compound 18b, (E)-N,N-bis(2-Chloroethyl)-5-(3-(4-chlorophenyl)acryloyl)-2,4-dimethoxybenzenesulfonamide]	–	–
186 to 189	COc1cc(OC)c(S(=O)(=O)N(CCCl)CCCl)cc1C(=O)/C=C/c1ccc(C)cc1 [Compound 18c, (E)-N,N-bis(2-Chloroethyl)-2,4-dimethoxy-5-(3-(p-tolyl)acryloyl)benzenesulfonamide]	–	–
168 to 171	COc1ccc(/C=C/C(=O)c2cc(S(=O)(=O)N(CCCl)CCCl)c(OC)cc2OC)cc1 [Compound 18d, (E)-N,N-bis(2-Chloroethyl)-2,4-dimethoxy-5-(3-(4-methoxyphenyl)acryloyl)benzenesulfonamide]	–	–
193 to 196	COc1cc(OC)c(S(=O)(=O)N(CCCl)CCCl)cc1C(=O)/C=C/c1ccc2c(c1)OCO2 [Compound 18f, (E)-5-(3-(Benzo[d][1,3]dioxol-5-yl)acryloyl)-N,N-bis(2-chloroethyl)-2,4-dimethoxybenzenesulfonamide]	–	–
222 to 224	COc1cc(OC)c(S(=O)(=O)N(CCCl)CCCl)cc1C1=NN(C=O)C(c2ccc(Cl)cc2)C1 (stereo not shown) [Compound 22d, N,N-bis(2-Chloroethyl)-5-(5-(4-chlorophenyl)-1-formyl-4,5-dihydro-1H-pyrazol-3-yl)-2,4-dimethoxybenzenesulfonamide]	–	–
196 to 198	COc1cc(OC)c(S(=O)(=O)N(CCCl)CCCl)cc1C1=NN(C(N)=S)C(c2ccc(Cl)cc2)C1 (stereo not shown) [Compound 27e, 3-(5-(N,N-bis(2-Chloroethyl)sulfamoyl)-2,4-dimethoxyphenyl)-5-(4-chlorophenyl)-4,5-dihydro-1H-pyrazole-1-carbothioamide]	–	–
–	C[C@H]1COc2c(N3CCN(C)CC3)c(F)cc3c(=O)c(C(=O)O)cn1c23 [Levofloxacin, levofloxacin, reference compound]	–	MIC (M. tuberculosis H37Rv): 0.5 µg/mL; FICI Index (M. tuberculosis H37Rv; [2]): 1.25; MIC Combination (M. tuberculosis H37Rv; [2]): 0.5 µg/mL; FICI Index (M. tuberculosis H37Rv; [3]): 1.00; MIC Combination (M. tuberculosis H37Rv; [3]): 0.25 µg/mL
–	CO[C@H]1/C=C/O[C@@]2(C)Oc3c(C)c(O)c4c(O)c(c(/C=N/N5CCN(C)CC5)c(O)c4c3C2=O)NC(=O)/C(C)=C\C=C\[C@H](C)[C@H](O)[C@@H](C)[C@@H](O)[C@@H](C)[C@H](OC(C)=O)[C@@H]1C [RIF, rifampicin, reference compound]	–	MIC Combination (M. tuberculosis H37Rv; [2]): 0.048 µg/mL; FICI Index (M. tuberculosis H37Rv; [3]): 0.37 *; MIC Combination (M. tuberculosis H37Rv; [3]): 0.048 µg/mL

Structure (SMILES)	melting point [°C]	inhibition at 10 µM [1] [%]	other results
COc1ccc(C(=O)C=Cc2ccccc2)cc1S(=O)(=O)Nc1cccnc1 [Compound 16a, 5-Cinnamoyl-2-methoxy-N-(pyridin-3-yl)benzenesulfonamide]	229 to 230	16.5	–
COc1ccc(C(=O)/C=C/c2ccc(Cl)cc2)cc1S(=O)(=O)Nc1cccnc1 [Compound 16b, (E)-5-(3-(4-Chlorophenyl)acryloyl)-2-methoxy-N-(pyridin-3-yl)benzenesulfonamide]	256 to 258	17	–
COc1ccc(C(=O)/C=C/c2ccc(C)cc2)cc1S(=O)(=O)Nc1cccnc1 [Compound 16c, (E)-2-Methoxy-N-(pyridin-3-yl)-5-(3-(p-tolyl)acryloyl)benzenesulfonamide]	231 to 234	12.2	–
COc1ccc(/C=C/C(=O)c2ccc(OC)c(S(=O)(=O)Nc3cccnc3)c2)cc1 [Compound 16d, (E)-2-Methoxy-5-(3-(4-methoxyphenyl)acryloyl)-N-(pyridin-3-yl)benzenesulfonamide]	228 to 230	10.2	–
COc1ccc(C(=O)/C=C/c2cc(OC)c(OC)c(OC)c2)cc1S(=O)(=O)Nc1cccnc1 [Compound 16e, (E)-2-Methoxy-N-(pyridin-3-yl)-5-(3-(3,4,5-trimethoxyphenyl)acryloyl)benzenesulfonamide]	239 to 241	7.7	–
COc1ccc(C(=O)/C=C/c2ccc3c(c2)OCO3)cc1S(=O)(=O)Nc1cccnc1 [Compound 16f, (E)-5-(3-(Benzo[d][1,3]dioxol-5-yl)acryloyl)-2-methoxy-N-(pyridin-3-yl)benzenesulfonamide]	220 to 223	12.9	–
COc1ccc(/C=C/C(=O)c2cc(S(N)(=O)=O)c(OC)cc2OC)cc1 [Compound 17d, (E)-2,4-Dimethoxy-5-(3-(4-methoxyphenyl)acryloyl)benzenesulfonamide]	215 to 218	30	–
COc1cc(OC)c(S(N)(=O)=O)cc1C(=O)/C=C/c1cc(OC)c(OC)c(OC)c1 [Compound 17e, (E)-2,4-Dimethoxy-5-(3-(3,4,5-trimethoxyphenyl)acryloyl)benzenesulfonamide]	253 to 256	24.7	–
COc1ccc(C(=O)/C=C/c2ccc(Cl)cc2)cc1S(=O)(=O)NNC(=O)c1ccncc1 [Compound 19b, (E)-5-(3-(4-Chlorophenyl)acryloyl)-N’-isonicotinoyl-2-methoxybenzenesulfonohydrazide]	242 to 244	0.96	–
COc1ccc(C(=O)/C=C/c2cc(OC)c(OC)c(OC)c2)cc1S(=O)(=O)NNC(=O)c1ccncc1 [Compound 19e, (E)-N’-Isonicotinoyl-2-methoxy-5-(3-(3,4,5-trimethoxyphenyl)acryloyl)benzenesulfonohydrazide]	202 to 204	7.7	–
COc1ccc(C(=O)/C=C/c2ccc3c(c2)OCO3)cc1S(=O)(=O)NNC(=O)c1ccncc1 [Compound 19f, (E)-5-(3-(Benzo[d][1,3]dioxol-5-yl)acryloyl)-N’-isonicotinoyl-2-methoxybenzenesulfonohydrazide]	245 to 248	0.48	–
COc1cc(OC)c(S(=O)(=O)NNC(=O)c2ccncc2)cc1C(=O)/C=C/c1ccc(Cl)cc1 [Compound 20b, (E)-5-(3-(4-Chlorophenyl)acryloyl)-N’-isonicotinoyl-2,4-dimethoxybenzenesulfonohydrazide]	196 to 198	20	–
COc1cc(OC)c(S(=O)(=O)NNC(=O)c2ccncc2)cc1C(=O)/C=C/c1ccc(C)cc1 [Compound 20c, (E)-N’-Isonicotinoyl-2,4-dimethoxy-5-(3-(p-tolyl)acryloyl)benzenesulfonohydrazide]	195 to 197	26.9	–
COc1ccc(C2=NN(C=O)C(c3ccc(Cl)cc3)C2)cc1S(N)(=O)=O (stereo not shown) [Compound 22a, 5-(5-(4-Chlorophenyl)-1-formyl-4,5-dihydro-1H-pyrazol-3-yl)-2-methoxybenzenesulfonamide]	230 to 231	2.15	–
